# According to patent US20240368096A1 (Enanta Pharmaceuticals, Inc., priority 2022, published 2024):
# Test system: HBV
# Test: HBV infection in HepG2-NTCP cells (HBeAg AlphaLISA in supernatants)
# Type: cell-based
# Details: Hepatitis B virus, 192 h; HBV infection of HepG2-NTCP cells; HBeAg in supernatants at day 8 post infection; read-out: Cellular EC50
# Procedure: HepG2-NTCP A3 cells were maintained in DMEM media supplemented with GlutaMAX™ 10% fetal bovine serum, 1% penicillin/streptomycin, and 5 μg/mL puromycin at 37° C. in a humidified atmosphere with 5% CO2 in a collagen-coated tissue culture flask.
# HepG2-NTCP cells were seeded in 384 well plate containing 16,000 cells/well two days prior to the infection. On the day of infection, compounds were 3-fold serially diluted in DMSO and pre-incubated with HepG2-NTCP cells for two hours before purified HBV addition. HBV infection was carried out at 2000 GE/cell with 4% PEG, and the final concentration of DMSO is 0.5%. On day one post infection, HBV-containing media was aspirated, cells were washed once with PBS and then maintained in 2.5% DMSO containing media for the remainder of the assay.
# Supernatants from infected HepG2-NTCP cells were collected at day 8 post infection, and the amount of viral antigen HBeAg was measured by HBeAg AlphaLISA detection kit (PerkinElmer) following the manufacturer's recommended protocol. Irrespective of readout, compound concentrations that reduce viral product accumulation in supernatants by […] relative to DMSO controls (EC50) are reported. EC50 ranges are as follows: A<0.1 μM; B 0.1-1 μM; C>1 μM.
row,EC50,Structure (SMILES)
1,100 to 1000 nM,CCO[C@@H](C)[C@@H]1CN(c2ccccc2)c2cc(Cl)c(-c3ccc(F)c(C(=O)O)c3)cc2S(=O)(=O)N1C [Example 89]
2,100 to 1000 nM,CN1[C@H](C2CCCCC2)CN(c2cc(F)c(F)c(F)c2)c2cc(Cl)c(-c3ccc(F)c(C(=O)O)c3)cc2S1(=O)=O [Example 298]
3,< 100 nM,CN1[C@H](C2CCCCC2)CN(c2ccccc2)c2cc(Cl)c(-c3ccc(Cl)c(C(=O)O)c3)cc2S1(=O)=O [Example 26]
4,100 to 1000 nM,CCCC[C@@H]1CN(c2ccccc2)c2cc(C)c(-c3ccc(Cl)c(C(=O)O)c3)cc2S(=O)(=O)N1C [Example 567]
5,100 to 1000 nM,CCC1CN(c2ccccc2)c2cc(Cl)c(-c3ccc(Cl)c(C(=O)O)c3)cc2S(=O)(=O)N1C (centres unmarked) [Example 46]
6,< 100 nM,CCCCC[C@H](C)Oc1cc2c(cc1-c1cc(F)c(C(=O)O)s1)S(=O)(=O)N(C)[C@H](C1CCCCC1)CN2c1ccccc1 [Example 490]
7,< 100 nM,CN(C)c1cc2c(cc1-c1ccc(F)c(C(=O)O)c1)S(=O)(=O)N(C)[C@H](C1CCCCC1)CN2c1ccccc1 [Example 529]
8,< 100 nM,CN1[C@H](C2CCCCC2)CN(c2ccccc2)c2cc(Cl)c(-c3sc(C(=O)O)cc3F)cc2S1(=O)=O [Example 119]
9,100 to 1000 nM,CN1[C@H](C2CCCCC2)CN(c2ccccc2)c2cc(OCc3cnco3)c(-c3ccc(F)c(C(=O)O)c3)cc2S1(=O)=O [Example 343]
10,< 100 nM,COCCOCCOc1cc2c(cc1-c1cc(F)c(C(=O)O)s1)S(=O)(=O)N(C)[C@H](C1CCCCC1)CN2c1ccccc1 [Example 498]
11,> 1000 nM,CCCC[C@H]1CN(c2ccccc2)c2cc(N(C)c3ccc(F)cc3)c(-c3cccc(C(=O)O)c3)cc2S(=O)(=O)N1C [Example 541]
12,100 to 1000 nM,CN1[C@H](C2CCCCC2)CN(c2cncnc2)c2cc(Cl)c(-c3ccc(F)c(C(=O)O)c3)cc2S1(=O)=O [Example 286]
13,< 100 nM,CN1[C@H](CC(C)(C)C)CN(c2ccccc2)c2cc(Cl)c(-c3ccc(Cl)c(C(=O)O)c3)cc2S1(=O)=O [Example 51]
14,100 to 1000 nM,CC(C)CC1CN(c2ccccc2)c2cc(N3CCCC3)c(-c3cccc(C(=O)O)c3)cc2S(=O)(=O)N1C (centres unmarked) [Example 544]
15,< 100 nM,CN1[C@H](C2CCCCC2)CN(c2ccccc2)c2cc(OC3CCC3)c(-c3ccc(NC(=O)OC4CCC4)c(C(=O)O)c3)cc2S1(=O)=O [Example 482]
16,> 1000 nM,CN1[C@H](C2CCCCC2)CN(c2ccccc2)c2cc(Cl)c(-c3cccc(S(N)(=O)=O)c3)cc2S1(=O)=O [Example 175]
17,< 100 nM,CC(C)CC1CN(c2ccccc2)c2cc(N3CCCCC3)c(-c3cccc(C(=O)O)c3)cc2S(=O)(=O)N1C (centres unmarked) [Example 545]
18,< 100 nM,CC(C)C[C@@H]1CN(c2ccccc2)c2cc(Oc3ccc(F)cc3)c(-c3ccc(F)c(C(=O)O)c3)cc2S(=O)(=O)N1C [Example 430]
19,> 1000 nM,CN1[C@H](C2CCCCC2)CN(c2ccccc2)c2cc(Oc3ccncc3)c(-c3ccc(F)c(C(=O)O)c3)cc2S1(=O)=O [Example 416]
20,< 100 nM,Cc1sccc1COc1cc2c(cc1-c1ccc(F)c(C(=O)O)c1)S(=O)(=O)N(C)[C@H](C1CCCCC1)CN2c1ccccc1 [Example 339]
21,< 100 nM,"CN1[C@H](C2CCCCC2)CN(c2ccccc2)c2cc(Cl)c(-c3ccc([N+](=O)[O-])c(C(=O)O)c3)cc2S1(=O)=O [Example 189, (R)-5-(7-chloro-3-cyclohexyl-2-methyl-1,1-dioxido-5-phenyl-2,3,4,5-tetrahydrobenzo[f][1,2,5]thiadiazepin-8-yl)-2-nitrobenzoic acid]"
22,100 to 1000 nM,CCCC[C@@H]1CN(c2ccccc2)c2cc(F)c(-c3ccc(N(C)C)c(C(=O)O)c3)cc2S(=O)(=O)N1C [Example 523]
23,100 to 1000 nM,CCCC[C@@H]1CN(c2ccccc2)c2cc(N3CCCC3)c(-c3cc(C(=O)O)n(C)n3)cc2S(=O)(=O)N1C [Example 521]
24,100 to 1000 nM,CN1[C@H](C2CCCCC2)CN(c2ccccc2)c2cc(C#CC(C)(C)O)c(-c3ccc(F)c(C(=O)O)c3)cc2S1(=O)=O [Example 603]
25,< 100 nM,CCCCCCCOc1cc2c(cc1-c1cc(F)c(C(=O)O)s1)S(=O)(=O)N(C)[C@H](C1CCCCC1)CN2c1ccccc1 [Example 485]
26,100 to 1000 nM,CCCCCCN1C[C@@H](C2CCCCC2)N(C)S(=O)(=O)c2cc(-c3ccc(F)c(C(=O)O)c3)c(Cl)cc21 [Example 324]
27,< 100 nM,CN1[C@H](C2CCCCC2)CN(c2ccccc2)c2cc(Cl)c(-c3ccc(NS(=O)(=O)CC4CCC4)c(C(=O)O)c3)cc2S1(=O)=O [Example 272]
28,100 to 1000 nM,CC(=O)NS(=O)(=O)c1cccc(-c2cc3c(cc2Cl)N(c2ccccc2)C[C@@H](C2CCC2)N(C)S3(=O)=O)c1 [Example 228]

# More lines, now with the values behind:
row,Structure (SMILES),EC50
1,CC(C)C[C@@H]1CN(c2ccccc2)c2cc(OCCN(C)C)c(-c3ccc(F)c(C(=O)O)c3)cc2S(=O)(=O)N1C [Example 451],> 1000 nM
2,CN1[C@H](C2CCCCC2)CN(c2ccccc2)c2cc(C3CCN(C(=O)OC(C)(C)C)CC3)c(-c3ccc(F)c(C(=O)O)c3)cc2S1(=O)=O [Example 590],100 to 1000 nM
3,CC(C)C[C@@H]1CN([C@H]2CCOC2)c2cc(Oc3ccccc3F)c(-c3ccc(F)c(C(=O)O)c3)cc2S(=O)(=O)N1C [Example 474],100 to 1000 nM
4,CC(C)CC1CN(c2ccccc2)c2cc(Cl)c(-c3cc(Cl)cc(C(=O)O)c3)cc2S(=O)(=O)N1C (centres unmarked) [Example 37],100 to 1000 nM
5,Cn1nc(-c2cc3c(cc2F)N(c2ccccc2)CC2CC4(CC4)CN2S3(=O)=O)cc1C(=O)O (centres unmarked) [Example 8],> 1000 nM
6,"CN1[C@H](C2CCCCC2)CN(c2ccccc2)c2cc(OCc3cn(C)cn3)c(-c3ccc(F)c(C(=O)O)c3)cc2S1(=O)=O [Example 389, (R)-5-(3-cyclohexyl-2-methyl-7-((1-methyl-1H-imidazol-4-yl)methoxy)-1,1-dioxido-5-phenyl-2,3,4,5-tetrahydrobenzo[f][1,2,5]thiadiazepin-8-yl)-2-fluorobenzoic acid]",100 to 1000 nM
7,CC(C)C[C@@H]1CN(c2ccccc2)c2cc(OCc3ccccn3)c(-c3ccc(F)c(C(=O)O)c3)cc2S(=O)(=O)N1C [Example 459],< 100 nM
8,CN1[C@H](C2CCCCC2)CN(c2ccccc2)c2cc(OCc3ccsc3Cl)c(-c3cc(F)c(C(=O)O)s3)cc2S1(=O)=O [Example 489],< 100 nM
9,CN1[C@H](C2CCC2)CN(c2ccccc2)c2cc(Cl)c(-c3ccc(C(F)(F)F)c(C(=O)O)c3)cc2S1(=O)=O [Example 204],< 100 nM
10,CN1[C@H](C2CCCCC2)CN(c2ccccc2)c2cc(OCCOC(C)(C)C)c(-c3cc(F)c(C(=O)O)s3)cc2S1(=O)=O [Example 495],< 100 nM
11,CCCCCCCCCCOc1cc2c(cc1-c1ccc(F)c(C(=O)O)c1)S(=O)(=O)N(C)[C@H](C1CCCCC1)CN2c1ccccc1 [Example 354],100 to 1000 nM
12,CC(C)C[C@@H]1CN(c2ccccc2)c2cc(Oc3ccccc3OC(F)(F)F)c(-c3ccc(F)c(C(=O)O)c3)cc2S(=O)(=O)N1C [Example 437],< 100 nM
13,"CN1[C@H](CO)CN(c2ccccc2)c2cc(Cl)c(-c3ccc(F)c(C(=O)O)c3)cc2S1(=O)=O [Example 98, (S)-5-(7-chloro-3-(hydroxymethyl)-2-methyl-1,1-dioxido-5-phenyl-2,3,4,5-tetrahydrobenzo[f][1,2,5]thiadiazepin-8-yl)-2-fluorobenzoic acid]",> 1000 nM
14,CC(C)OC(=O)Nc1cc(-c2cc3c(cc2Cl)N(c2ccccc2)C[C@@H](C2CCCCC2)N(C)S3(=O)=O)sc1C(=O)O [Example 248],< 100 nM
15,CC(C)CC1CN(c2ccccc2)c2cc(Cl)c(-c3cc(F)cc(C(=O)O)c3)cc2S(=O)(=O)N1C (centres unmarked) [Example 36],100 to 1000 nM
16,CN1[C@H](CN2CCOCC2)CN(c2ccccc2)c2cc(Cl)c(-c3ccc(F)c(C(=O)O)c3)cc2S1(=O)=O [Example 109],> 1000 nM
17,CC(C)C[C@@H]1CN(c2ccccc2)c2cc(OC3COC3)c(-c3ccc(F)c(C(=O)O)c3)cc2S(=O)(=O)N1C [Example 443],100 to 1000 nM
18,CN1[C@H](C2CCCCC2)CN(c2ccccc2)c2cc(OCc3ccccc3C#N)c(-c3cc(F)c(C(=O)O)s3)cc2S1(=O)=O [Example 510],< 100 nM
19,CN1[C@H](C2CCCCC2)CN(c2ccccc2)c2cc(Oc3cccc(F)c3F)c(-c3ccc(F)c(C(=O)O)c3)cc2S1(=O)=O [Example 402],< 100 nM
20,CC(C)CC1CN(c2ccccc2F)c2cc(Cl)c(-c3cccc(C(=O)O)c3)cc2S(=O)(=O)N1C (centres unmarked) [Example 330],100 to 1000 nM
21,CO[C@H]1CCN(c2cc3c(cc2-c2ccc(F)c(C(=O)O)c2)S(=O)(=O)N(C)[C@H](C2CCCCC2)CN3c2ccccc2)C1 [Example 532],< 100 nM
22,CN1[C@H](C2CCCCC2)CN(c2ccccc2)c2cc(F)c(-c3ccc(F)c(C(=O)O)c3)cc2S1(=O)=O [Example 176],< 100 nM
23,CCCC[C@@H]1CN(c2ccccc2)c2cc(Nc3ccccc3F)c(-c3ccc(F)c(C(=O)O)c3)cc2S(=O)(=O)N1C [Example 522],< 100 nM
24,CC(C)C[C@@H]1CN(c2ccccc2)c2cc(Cl)c(-c3cccc(S(=O)(=O)O)c3)cc2S(=O)(=O)N1C [Example 230],100 to 1000 nM
25,CC(C)C[C@@H]1CN(c2ccccc2)c2cc(Cl)c(-c3cccc(/C=C/C(=O)O)c3)cc2S(=O)(=O)N1C [Example 171],> 1000 nM
